The target in experiment [1] is neuraminidase of A(H1N1)pdm09-S247N isolate (A/NRW/142/2019) (Influenza A virus, UniProt A0A0X9QTS2, S247N). Type of experiment: biochemical.
For experiment [2], the system named is A(H3N2) PA-I38M isolate (A/Berlin/9/2020). The class given is cell-based, influenza A(H3N2).

Consider `CC(=O)N[C@H]1[C@H]([C@H](O)[C@H](O)CO)OC(C(=O)O)=C[C@@H]1N=C(N)N` [Zanamivir, zanamivir], for which the IC50 increase entry in experiment [1] is recorded as “up to 7 fold”.

Consider `CCC(CC)[C@H](NC(C)=O)[C@@H]1[C@H](O)[C@@H](C(=O)O)C[C@H]1N=C(N)N` [Peramivir, peramivir], for which the IC50 increase result in experiment [1] is listed as “up to 7 fold”. For the molecule `COC(=O)OCOc1c2n(ccc1=O)N([C@@H]1c3ccccc3SCc3c1ccc(F)c3F)[C@@H]1COCCN1C2=O` [baloxavir marboxil, Baloxavir marboxil], in experiment [2], the “reduction of antiviral activity” value is listed as “up to 5 fold”.

These data come from article PMC9939793 (Infection and Drug Resistance, 2023).
